The record followed here is US20060063784A1, “Method of using substituted pyrazolo [1,5-a] pyrimidines” (priority 2004, published 2006).

Each structure is given as a SMILES string. Like-named read-outs stand apart in the source and are kept apart here.

The subject of assay [1] is LoVo Colon cell line. Briefly: Cytotoxicity assay using LoVo colon cell line, SRB. The format is cell-based. As to conditions: read-out: Inhibition of LoVo. Here is the method:
Cytotoxicity Assay Using LoVo Colon Cell Line: • 1. LoVo Colon cell lines were cultured in RPMI 1640 medium (Gibco/Invitrogen Life Sciences) supplemented with 10% fetal bovine serum (FBS, Gibco) and 50 μg/ml entamicin (Gibco). Cells were maintained at 37° C. under 7% CO2. • 2. Cells were seeded in 96-well microtiter plates (Corning/Costar) in a volume of 0.15 ml of growth medium (4000 cells/well). Plates were incubated at 37° C. overnight (18-24 hours). • 3. Serial dilutions of the test agent were added to each well. Dilutions were prepared in growth medium. One of two dose ranges was used: 5 pM to 20 μM or 170 pg/ml to 10 μg/ml. Cells were incubated with the test compounds for 4 days at 37° C. • 4. Surviving cells were processed using the SRB asay, as described above.
5. The drug concentration that inhibits cell proliferation by 50% relative to untreated controls (IC50) was determined from cytotoxicity curves using the LSW Toolbox graphing application.

In assay [2] the test system is 80S14 (p21-deficient) cells. Briefly: Cytotoxicity assay using isogenic cell lines: IC50 in 80S14 (p21-deficient) cells, SRB. It counts as cell-based, human. An outline of the steps:
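IC50 is the concentration halving proliferation relative to untreated controls, read from SRB absorbance (560 nm) after TCA fixation. Test agent dilutions (5 pM–50 μM or 170 pg/ml–10 μg/ml) were left on p21-deficient 80S14 cells (12,000/well, pre-incubated overnight) for 5 days at 37 °C.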

Where [3] appears, read: Homo sapiens, 96 h, LoVo colon cells, 4 days incubation, SRB.
The mark [4] stands for this setting: Homo sapiens, 120 h, 80S14 p21-deficient cells, 5 days incubation, SRB, read-out: IC50 for 80SI4.
[5] abbreviates: LoVo colon cells, 4 days incubation, SRB.
The mark [6] stands for this setting: 80S14 p21-deficient cells, 5 days incubation, SRB, read-out: IC50 for 80SI4.

In the case of `O=C(CC1CC1)Nc1cccc(-c2ccnc3c(C(=O)c4cccs4)cnn23)c1` [Example 72, 2-cyclopropyl-N-{3-[3-(thien-2-ylcarbonyl)pyrazolo[1,5-a]pyrimidin-7-yl]phenyl}acetamide], the values for the IC50 in assay [1] (setting [3]) and in assay [2] (setting [4]) were 0.1 to 1 µM and < 1 µM, respectively.
The like results for `O=C(CC1CCCCC1)Nc1cccc(-c2ccnc3c(C(=O)c4cccs4)cnn23)c1` [Example 74, 2-cyclohexyl-N-{3-[3-(thien-2-ylcarbonyl)pyrazolo[1,5-a]pyrimidin-7-yl]phenyl}acetamide] were, in that order, < 0.1 µM and < 1 µM.
For the molecule `O=C(CC1CCCCCC1)Nc1cccc(-c2ccnc3c(C(=O)c4cccs4)cnn23)c1` [Example 75, 2-cycloheptyl-N-{3-[3-(thien-2-ylcarbonyl)pyrazolo[1,5-a]pyrimidin-7-yl]phenyl}acetamide], the IC50 in assay [1] (setting [3]) is < 0.1 µM; in assay [2] (setting [4]), < 1 µM.
For `O=C(CC1CC2CCC1C2)Nc1cccc(-c2ccnc3c(C(=O)c4cccs4)cnn23)c1` (stereo not drawn) [Example 76, 2-bicyclo[2.2.1]hept-2-yl-N-{3-[3-(thien-2-ylcarbonyl)pyrazolo[1,5-a]pyrimidin-7-yl]phenyl}acetamide] the same measures were < 0.1 µM and < 1 µM.
In the case of `COc1ccccc1C(=O)Nc1cccc(-c2ccnc3c(C(=O)c4cccs4)cnn23)c1` [Example 93, 2-methoxy-N-{3-[3-(thien-2-ylcarbonyl)pyrazolo[1,5-a]pyrimidin-7-yl]phenyl}benzamide], the IC50 was < 0.1 µM in assay [1] (setting [3]) and < 1 µM in assay [2] (setting [4]).
The like results for `Cc1ccccc1C(=O)Nc1cccc(-c2ccnc3c(C(=O)c4cccs4)cnn23)c1` [Example 94, 2-methyl-N-{3-[3-(thien-2-ylcarbonyl)pyrazolo[1,5-a]pyrimidin-7-yl]phenyl}benzamide] were, in that order, < 0.1 µM and < 1 µM.
On to `O=C(Nc1cccc(-c2ccnc3c(C(=O)c4cccs4)cnn23)c1)c1ccccc1Cl` [Example 95, 2-chloro-N-{3-[3-(thien-2-ylcarbonyl)pyrazolo[1,5-a]pyrimidin-7-yl]phenyl}benzamide], for which the values for the IC50 in assay [1] (setting [3]) and in assay [2] (setting [4]) were < 0.1 µM and < 1 µM, respectively.
The like results for `O=C(Nc1cccc(-c2ccnc3c(C(=O)c4cccs4)cnn23)c1)c1ccccc1C(F)(F)F` [Example 96, N-{3-[3-(thien-2-ylcarbonyl)pyrazolo[1,5-a]pyrimidin-7-yl]phenyl}-2-(trifluoromethyl)benzamide] were, in that order, < 0.1 µM and < 1 µM.
For `CCCC(=O)Nc1cccc(-c2ccnc3c(C(=O)c4cccs4)cnn23)c1` [Example 148, N-{3-[3-(thien-2-ylcarbonyl)pyrazolo[1,5-a]pyrimidin-7-yl]phenyl}butanamide], the IC50 in assay [1] (Homo sapiens, LoVo, 96 h) is < 0.1 µM; in assay [2] (Homo sapiens, 80S14, 120 h, read-out: IC50 for 80SI4 (uM)), < 1 µM.
In the case of `CCCCC(=O)Nc1cccc(-c2ccnc3c(C(=O)c4cccs4)cnn23)c1` [Example 152, N-3{3-[3-(thien-2-ylcarbonyl)pyrazolo[1,5-a]pyrimidin-7-yl]phenyl}pentanamide], the IC50 in assay [1] (setting [5]) is < 0.1 µM; in assay [2] (setting [6]), < 1 µM.
Consider `O=C(c1cccs1)c1cnn2c(-c3cccc(NC(=O)N4CCCCC4)c3)ccnc12` [Example 155, N-{3-[3-(thien-2-ylcarbonyl)pyrazolo[1,5-a]pyrimidin-7-yl]phenyl}piperidine-1-carboxamide], for which the IC50 in assay [1] (setting [3]) was < 0.1 µM; in assay [2] (setting [4]), < 1 µM.
As to `CCCCN(C)C(=O)Nc1cccc(-c2ccnc3c(C(=O)c4cccs4)cnn23)c1` [Example 156, N-butyl-N-methyl-N′-{3-[3-(thien-2-ylcarbonyl)pyrazolo[1,5-a]primidin-7-yl]phenyl}urea], the IC50 is 0.1 to 1 µM in assay [1] (setting [5]) and < 1 µM in assay [2] (setting [6]).
In the case of `CCC(C)NC(=O)Nc1cccc(-c2ccnc3c(C(=O)c4cccs4)cnn23)c1` (stereo not drawn) [Example 158, N-(sec-butyl)-N′-{3-[3-(thien-2-ylcarbonyl)pyrazolo[1,5-a]pyrimidin-7-yl]phenyl}urea], the IC50 in assay [1] (setting [3]) is < 0.1 µM; in assay [2] (setting [4]), < 1 µM.
Turning to `CCN(CC)C(=O)Nc1cccc(-c2ccnc3c(C(=O)c4cccs4)cnn23)c1` [Example 159, N,N-diethyl-N′-{3-[3-(thien-2-ylcarbonyl)pyrazolo[1,5-a]pyrimidin-7-yl]phenyl}urea], the results for the IC50 in assay [1] (setting [3]) and in assay [2] (setting [4]) were 0.1 to 1 µM and 1 to 10 µM, respectively.
For `O=C(NCC1CCCCC1)Nc1cccc(-c2ccnc3c(C(=O)c4cccs4)cnn23)c1` [Example 160, N-(cyclohexylmethyl)-N′-{3-[3-(thien-2-ylcarbonyl)pyrazolo[1,5-a]pyrimidin-7-yl]phenyl}urea], the IC50 in assay [1] (setting [3]) fell in the range of 0.1 to 1 µM; in assay [2] (setting [4]), 1 to 10 µM.
For the molecule `O=C(Nc1cccc(-c2ccnc3c(C(=O)c4cccs4)cnn23)c1)NC1CCCC1` [Example 162, N-cyclopentyl-N′-{3-[3-(thien-2-ylcarbonyl)pyrazolo[1,5-a]pyrimidin-7-yl]phenyl}urea], the figures for the IC50 in assay [1] (setting [3]) and in assay [2] (setting [4]) were < 0.1 µM and < 1 µM, respectively.
On to `O=C(NCC1CCCO1)Nc1cccc(-c2ccnc3c(C(=O)c4cccs4)cnn23)c1` (stereo not drawn) [Example 163, N-(tetrahydrofuran-2-ylmethyl)-N′-{3-[3-(thien-2-ylcarbonyl)pyrazolo[1,5-a]pyrimidin-7-yl]phenyl}urea], for which the results for the IC50 in assay [1] (setting [3]) and in assay [2] (setting [4]) were 0.1 to 1 µM and < 1 µM, respectively.
In the case of `CC(C)(C)CNC(=O)Nc1cccc(-c2ccnc3c(C(=O)c4cccs4)cnn23)c1` [Example 164, N-neopentyl-N′-{3-[3-(thien-2-ylcarbonyl)pyrazolo[1,5-a]pyrimidin-7-yl]phenyl}urea], the IC50 in assay [1] (setting [3]) was < 0.1 µM; in assay [2] (setting [4]), < 1 µM.
The like results for `CCCCCNC(=O)Nc1cccc(-c2ccnc3c(C(=O)c4cccs4)cnn23)c1` [Example 165, N-pentyl-N′-{3-[3-(thien-2-ylcarbonyl)pyrazolo[1,5-a]pyrimidin-7-yl]phenyl}urea] were, in that order, 0.1 to 1 µM and < 1 µM.
The like results for `COCCN(CCOC)C(=O)Nc1cccc(-c2ccnc3c(C(=O)c4cccs4)cnn23)c1` [Example 168, N,N-bis(2-methoxyethyl)-N′-{3-[3-(thien-2-ylcarbonyl)pyrazolo[1,5-a]pyrimidin-7-yl]phenyl}urea] were, in that order, 1 to 2 µM and 10 to 50 µM.
For `O=C(Nc1cccc(-c2ccnc3c(C(=O)c4cccs4)cnn23)c1)NC1CC1` [Example 169, N-cyclopropyl-N′-{3-[3-(thien-2-ylcarbonyl)pyrazolo[1,5-a]pyrimidin-7-yl]phenyl}urea] the same measures were 0.1 to 1 µM and 1 to 10 µM.
As for `O=C(c1cccs1)c1cnn2c(-c3cccc(NC(=O)N4CCCC4)c3)ccnc12` [Example 170, N-{3-[3-(thien-2-ylcarbonyl)pyrazolo[1,5-a]pyrimidin-7-yl]phenyl}pyrrolidine-1-carboxamide], the IC50 in assay [1] (setting [3]) was 0.1 to 1 µM; in assay [2] (setting [4]) it was 1 to 10 µM.
Turning to `O=C(Nc1cccc(-c2ccnc3c(C(=O)c4cccs4)cnn23)c1)OC1CCCC1` [Example 171, cyclopentyl 3-[3-(thien-2-ylcarbonyl)pyrazolo[1,5-a]pyrimidin-7-yl]phenylcarbamate], the results for the IC50 in assay [1] (setting [3]) and in assay [2] (setting [4]) were < 0.1 µM and < 1 µM, respectively.
Regarding `O=C(Nc1cccc(-c2ccnc3c(C(=O)c4cccs4)cnn23)c1)OC1CCCCC1` [Example 172, cyclohexyl 3-(3-(thien-2-ylcarbonyl)pyrazolo[1,5-a]pyrimidin-7-yl]phenylcarbamate], the figures for the IC50 in assay [1] (setting [3]) and in assay [2] (setting [4]) were < 0.1 µM and < 1 µM, respectively.
